# In patent US20070167492A1, “Molluscicidal agents” (priority 2003, published 2007):
# Experiments:
# [1] = test system: Deroceras reticulatum (grey field slug); experiment: Example 1: pot test, treated winter wheat seed with 5 adult slugs per pot, 14 days; assay type: in vivo
# Procedure, shortened: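 Fludioxonil-disinfected winter wheat seed (Kampa, 40 per pot) sown on quartz sand over potting soil with 5 adult slugs per pot; ±15° C., ±90% RH, 12 h light/12 h dark, 4 replicates. Damaged seeds, plants, dead slugs and fecal pellets counted up to day 14; F-tests and Student-tests.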
# [2] = test system: Deroceras reticulatum (grey field slug); experiment: Example 2: pot re-test, treated winter wheat seed with 5 adult slugs per pot, 7 days; assay type: in vivo
# Procedure, shortened: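 Pots sown with 40 treated winter wheat seeds on quartz sand over potting soil, each given 5 adult grey field slugs, kept at 18-19° C, ~95% RH, ~18 h light, no overhead irrigation; 4 replicates. Damaged seeds, intact plants, dead slugs and fecal pellets counted at 2, 3, 7 days; F-tests and Student tests.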
# [3] = 3.8 ml formulated per kg seed, 2 days after sowing
# [4] = 3.8 ml formulated per kg seed, 3 days after sowing
# [5] = 3.8 ml formulated per kg seed, 7 days after sowing
# [6] = 3.8 ml formulated per kg seed, 10 days after sowing
# [7] = 3.8 ml formulated per kg seed, 14 days after sowing
# [8] = 7.5 ml formulated per kg seed, 2 days after sowing
# [9] = 7.5 ml formulated per kg seed, 3 days after sowing
# [10] = 7.5 ml formulated per kg seed, 7 days after sowing
# [11] = 7.5 ml formulated per kg seed, 10 days after sowing
# [12] = 7.5 ml formulated per kg seed, 14 days after sowing
# [13] = 11 ml formulated per kg seed, 2 days after sowing
# [14] = 11 ml formulated per kg seed, 3 days after sowing
# [15] = 11 ml formulated per kg seed, 7 days after sowing
# [16] = 11 ml formulated per kg seed, 10 days after sowing
# [17] = 11 ml formulated per kg seed, 14 days after sowing
# [18] = 15 ml formulated per kg seed, 2 days after sowing
# [19] = 15 ml formulated per kg seed, 3 days after sowing
# [20] = 15 ml formulated per kg seed, 7 days after sowing
# [21] = 15 ml formulated per kg seed, 10 days after sowing
# [22] = 15 ml formulated per kg seed, 14 days after sowing
# [23] = Example 2, 3.8 ml formulated per kg seed, 2 days after sowing
# [24] = Example 2, 3.8 ml formulated per kg seed, 3 days after sowing
# [25] = Example 2, 3.8 ml formulated per kg seed, 7 days after sowing
# [26] = Example 2, after 2, 3 and 7 days
structure (smiles),measurement,setting,value
CC1OC(C)OC(C)OC(C)O1 (stereo not shown) [metaldehyde],number of utilizable plants after 14 days,[1]; 3.8 ml formulated per kg seed,32.3
same,percentage of damaged seeds after 14 days,[1]; 3.8 ml formulated per kg seed,7%
same,Mean number of damaged seeds per pot,[1]; [3],0
same,Mean number of dead slugs per pot,[1]; [3],0
same,Mean number fecal pellets per pot,[1]; [4],1
same,Mean number of damaged seeds per pot,[1]; [4],0.3
same,Mean number of dead slugs per pot,[1]; [4],0
same,Mean number of plants present per pot,[1]; [4],9.3
same,Mean number fecal pellets per pot,[1]; [5],4
same,Mean number of damaged seeds per pot,[1]; [5],2.5
same,Mean number of dead slugs per pot,[1]; [5],0
same,Mean number of plants present per pot,[1]; [5],34.8
same,Mean number fecal pellets per pot,[1]; [6],5
same,Mean number of damaged seeds per pot,[1]; [6],1.3
same,Mean number of dead slugs per pot,[1]; [6],0
same,Mean number of plants present per pot,[1]; [6],33.0
same,Mean number fecal pellets per pot,[1]; [7],31
same,Mean number of damaged seeds per pot,[1]; [7],2.8
same,Mean number of dead slugs per pot,[1]; [7],0.5
same,Mean number of plants present per pot,[1]; [7],34.0
same,number of utilizable plants after 14 days,[1]; 7.5 ml formulated per kg seed,34.3
same,percentage of damaged seeds after 14 days,[1]; 7.5 ml formulated per kg seed,6%
same,Mean number of damaged seeds per pot,[1]; [8],0
same,Mean number of dead slugs per pot,[1]; [8],0
same,Mean number fecal pellets per pot,[1]; [9],2
same,Mean number of damaged seeds per pot,[1]; [9],0
same,Mean number of dead slugs per pot,[1]; [9],0
same,Mean number of plants present per pot,[1]; [9],3.5
same,Mean number fecal pellets per pot,[1]; [10],4
same,Mean number of damaged seeds per pot,[1]; [10],3.5
same,Mean number of dead slugs per pot,[1]; [10],0.8
same,Mean number of plants present per pot,[1]; [10],34.3
same,Mean number fecal pellets per pot,[1]; [11],4
same,Mean number of damaged seeds per pot,[1]; [11],2.5
same,Mean number of dead slugs per pot,[1]; [11],1.0
same,Mean number of plants present per pot,[1]; [11],35.3
same,Mean number fecal pellets per pot,[1]; [12],6
same,Mean number of damaged seeds per pot,[1]; [12],2.5
same,Mean number of dead slugs per pot,[1]; [12],1.5
same,Mean number of plants present per pot,[1]; [12],35.0
same,number of utilizable plants after 14 days,[1]; 11 ml formulated per kg seed,36.3
same,percentage of damaged seeds after 14 days,[1]; 11 ml formulated per kg seed,1%
same,Mean number of damaged seeds per pot,[1]; [13],0
same,Mean number of dead slugs per pot,[1]; [13],0
same,Mean number fecal pellets per pot,[1]; [14],2
same,Mean number of damaged seeds per pot,[1]; [14],0
same,Mean number of dead slugs per pot,[1]; [14],0
same,Mean number of plants present per pot,[1]; [14],9.8
same,Mean number fecal pellets per pot,[1]; [15],2
same,Mean number of damaged seeds per pot,[1]; [15],1.0
same,Mean number of dead slugs per pot,[1]; [15],0.5
same,Mean number of plants present per pot,[1]; [15],34.0
same,Mean number fecal pellets per pot,[1]; [16],1
same,Mean number of damaged seeds per pot,[1]; [16],0.3
same,Mean number of dead slugs per pot,[1]; [16],0.5
same,Mean number of plants present per pot,[1]; [16],35.8
same,Mean number fecal pellets per pot,[1]; [17],3
same,Mean number of damaged seeds per pot,[1]; [17],0.3
same,Mean number of dead slugs per pot,[1]; [17],1.0
same,Mean number of plants present per pot,[1]; [17],36.5
same,number of utilizable plants after 14 days,[1]; 15 ml formulated per kg seed,34.5
same,percentage of damaged seeds after 14 days,[1]; 15 ml formulated per kg seed,0%
same,Mean number of damaged seeds per pot,[1]; [18],0.3
same,Mean number of dead slugs per pot,[1]; [18],0
same,Mean number fecal pellets per pot,[1]; [19],1
same,Mean number of damaged seeds per pot,[1]; [19],0
same,Mean number of dead slugs per pot,[1]; [19],0.3
same,Mean number of plants present per pot,[1]; [19],6.3
same,Mean number fecal pellets per pot,[1]; [20],3
same,Mean number of damaged seeds per pot,[1]; [20],0.8
same,Mean number of dead slugs per pot,[1]; [20],0.8
same,Mean number of plants present per pot,[1]; [20],35.0
same,Mean number fecal pellets per pot,[1]; [21],4
same,Mean number of damaged seeds per pot,[1]; [21],0
same,Mean number of dead slugs per pot,[1]; [21],0.8
same,Mean number of plants present per pot,[1]; [21],35.0
same,Mean number fecal pellets per pot,[1]; [22],5
same,Mean number of damaged seeds per pot,[1]; [22],0
same,Mean number of dead slugs per pot,[1]; [22],1.0
same,Mean number of plants present per pot,[1]; [22],35.3
same,damaged seeds relative to the control,"[1]; Example 1, 3.8, 7.5, 11 or 15 ml per kg of seed, all dosages",significantly less damaged seeds
same,plants present relative to untreated,"[1]; Example 1, all dosages, after 7 days",significantly more plants present
same,fecal pellets relative to the untreated seed,"[1]; Example 1, at each dosage and at each observation",significantly less fecal pellets
same,protection / slug controlling effect (conclusion),"[1]; Example 1, winter wheat seed treatment, dosages tested",excellent protection against slugs
same,dead slugs observed during the course of the experiment,[2]; Example 2,More dead slugs
same,result of seed treatment against slugs (conclusion),[2]; Example 2,good action against slugs
same,percentage of damaged seeds after 7 days,"[2]; Example 2, 3.8 ml formulated per kg seed",1%
same,Mean number of damaged seeds per pot,[2]; [23],0.5
same,Mean number of dead slugs per pot,[2]; [23],0.5
same,Mean number of damaged seeds per pot,[2]; [24],0.3
same,Mean number of dead slugs per pot,[2]; [24],0.8
same,Mean number of damaged seeds per pot,[2]; [25],0.3
same,Mean number of dead slugs per pot,[2]; [25],3.0
same,number of fecal pellets per pot relative to the untreated control,[2]; [26],significant reduction in the number of fecal pellets
same,plants present relative to the untreated seed,[2]; [26],significantly more plants present
same,number of damaged seeds relative to the untreated seed,"[2]; Example 2, two days after the start",significant reduction in the number of damaged seeds
same,Mean number of fecal pellets per pot,"[2]; dosage 3.8 ml, 2 days",0
same,Mean number of plants present per pot,"[2]; dosage 3.8 ml, 2 days",20.8
same,Mean number of fecal pellets per pot,"[2]; dosage 3.8 ml, 3 days",0
same,Mean number of plants present per pot,"[2]; dosage 3.8 ml, 3 days",32.5
same,Mean number of fecal pellets per pot,"[2]; dosage 3.8 ml, 7 days",5
same,Mean number of plants present per pot,"[2]; dosage 3.8 ml, 7 days",35.8
same,number of utilizable plants after 7 days,"[2]; dosage 3.8 ml, 7 days",34.3
